Measured values reported in patent US7897358B2, “Canine transient receptor potential V2 (cTRPV2) and methods of screening for TRPV2 channel modulators” (Janssen Pharmaceutica N.V., priority 2007, dated 2011).

Legend:
canine TRPV2 (cTRPV2) = test: Calcium influx functional assay (FLIPR) in HEK293 cells transiently transfected with cTRPV2; format: cell-based; conditions: recombinant cTRPV2-expressing host cells
Procedure: The expression construct, cTRPV2/pcDNA3.1 was then transfected into human embryonic kidney cells (HEK293, ATCC CRL-1573) with FuGene6 transfection reagent (Roche, Indianapolis, Ind.), according to the vendor's protocol. TRPV2-expressing HEK293 cells were cultured in DMEM supplemented with 10% fetal bovine serum, 100 units/ml penicillin and 100 μg/ml streptomycin at 37° C. with 5% CO2, and were analyzed using a calcium influx assay 48-72 hr. post-transfection.
Transiently transfected cells were seeded in 384-well plates at a density of 1×10^4 cells/well and incubated overnight at 37° C. The following day, the cells were loaded with buffer and calcium dye, as recommended by the vendor (Molecular Devices, Sunnyvale, Calif.), in a final volume of 40 μl and incubated for 30 minutes at room temperature. The fluorescence intensity was measured by FLIPR before, during and after the addition of Δ^9-THC, which was added to the cells at a final concentration of 100 μM.

human TRPV2 = biological target: T1, human TRPV2 (Homo sapiens, UniProt Q9Y5S1); conditions: cited from earlier work
T1 sequence (Q9Y5S1 1-764): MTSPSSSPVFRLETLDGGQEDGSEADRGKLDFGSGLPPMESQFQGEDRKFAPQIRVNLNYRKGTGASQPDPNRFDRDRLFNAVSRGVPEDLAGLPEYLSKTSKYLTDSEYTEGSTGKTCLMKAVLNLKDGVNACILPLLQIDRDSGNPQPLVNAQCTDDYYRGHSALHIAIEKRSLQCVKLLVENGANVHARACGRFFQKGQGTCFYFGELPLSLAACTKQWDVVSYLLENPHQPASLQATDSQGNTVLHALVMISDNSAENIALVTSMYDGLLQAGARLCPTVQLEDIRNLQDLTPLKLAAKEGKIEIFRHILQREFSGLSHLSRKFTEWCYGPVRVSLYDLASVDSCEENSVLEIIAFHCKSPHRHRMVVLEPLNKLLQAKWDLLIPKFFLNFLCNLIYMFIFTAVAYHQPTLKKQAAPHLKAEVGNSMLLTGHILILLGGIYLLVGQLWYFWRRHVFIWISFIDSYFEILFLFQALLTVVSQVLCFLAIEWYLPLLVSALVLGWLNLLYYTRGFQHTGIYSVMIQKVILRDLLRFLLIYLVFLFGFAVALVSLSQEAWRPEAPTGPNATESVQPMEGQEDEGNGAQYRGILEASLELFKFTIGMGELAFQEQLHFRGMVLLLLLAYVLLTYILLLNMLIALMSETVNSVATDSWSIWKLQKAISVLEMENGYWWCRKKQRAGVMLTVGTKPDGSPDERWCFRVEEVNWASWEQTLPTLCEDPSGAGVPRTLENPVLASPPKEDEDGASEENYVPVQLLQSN

rat TRPV2 = biological target: T2, rat TRPV2 (Rattus norvegicus, UniProt Q9WUD2); conditions: cited from earlier work
T2 sequence (Q9WUD2 1-761): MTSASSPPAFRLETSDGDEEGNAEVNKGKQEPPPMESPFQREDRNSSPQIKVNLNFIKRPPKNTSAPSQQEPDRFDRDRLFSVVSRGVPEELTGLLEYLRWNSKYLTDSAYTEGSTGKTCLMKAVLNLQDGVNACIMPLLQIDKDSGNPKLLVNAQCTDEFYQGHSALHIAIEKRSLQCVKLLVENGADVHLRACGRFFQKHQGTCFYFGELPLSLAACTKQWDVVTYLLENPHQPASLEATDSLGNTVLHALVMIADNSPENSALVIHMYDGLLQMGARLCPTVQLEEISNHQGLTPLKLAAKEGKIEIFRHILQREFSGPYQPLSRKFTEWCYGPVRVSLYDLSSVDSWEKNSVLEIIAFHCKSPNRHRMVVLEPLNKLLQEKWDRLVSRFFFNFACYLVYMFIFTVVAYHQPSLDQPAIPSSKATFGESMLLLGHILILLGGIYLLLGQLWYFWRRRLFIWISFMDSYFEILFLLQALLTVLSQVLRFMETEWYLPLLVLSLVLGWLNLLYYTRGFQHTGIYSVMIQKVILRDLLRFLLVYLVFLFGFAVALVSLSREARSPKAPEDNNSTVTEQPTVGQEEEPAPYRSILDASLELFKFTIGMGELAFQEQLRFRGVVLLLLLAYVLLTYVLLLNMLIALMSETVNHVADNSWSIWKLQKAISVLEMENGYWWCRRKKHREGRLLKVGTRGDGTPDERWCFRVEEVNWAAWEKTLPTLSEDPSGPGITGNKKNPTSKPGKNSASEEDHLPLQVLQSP

mouse TRPV2 = biological target: T3, mouse TRPV2 (Mus musculus, UniProt Q9WTR1); conditions: cited from earlier work
T3 sequence (Q9WTR1 1-756): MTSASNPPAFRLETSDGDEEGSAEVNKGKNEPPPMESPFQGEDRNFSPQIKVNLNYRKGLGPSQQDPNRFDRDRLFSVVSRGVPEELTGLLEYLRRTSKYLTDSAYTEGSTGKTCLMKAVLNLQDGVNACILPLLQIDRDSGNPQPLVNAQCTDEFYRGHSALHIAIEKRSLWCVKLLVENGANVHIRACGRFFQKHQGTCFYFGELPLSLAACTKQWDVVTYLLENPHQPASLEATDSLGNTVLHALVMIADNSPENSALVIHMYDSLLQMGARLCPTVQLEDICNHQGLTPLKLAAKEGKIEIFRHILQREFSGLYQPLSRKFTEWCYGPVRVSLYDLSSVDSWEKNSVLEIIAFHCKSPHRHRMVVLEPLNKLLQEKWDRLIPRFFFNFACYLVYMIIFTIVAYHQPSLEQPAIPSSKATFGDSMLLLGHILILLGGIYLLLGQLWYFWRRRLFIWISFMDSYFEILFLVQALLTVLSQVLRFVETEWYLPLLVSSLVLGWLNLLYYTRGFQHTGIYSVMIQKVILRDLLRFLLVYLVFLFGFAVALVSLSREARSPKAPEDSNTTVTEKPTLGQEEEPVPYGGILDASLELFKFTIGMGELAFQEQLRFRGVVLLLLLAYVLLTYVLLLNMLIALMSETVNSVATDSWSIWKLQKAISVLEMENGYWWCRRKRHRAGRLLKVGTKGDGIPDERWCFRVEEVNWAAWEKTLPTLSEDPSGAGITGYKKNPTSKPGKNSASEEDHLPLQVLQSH

In the case of `CCCCCc1cc(O)c2c(c1)OC(C)(C)[C@@H]1CCC(C)=C[C@@H]21` [Δ^9-THC, Δ^9-tetrahydrocannabinol], the “response of the recombinant TRPV2 cell system to agonist” value (canine TRPV2 (cTRPV2)) is given as “responded to Δ^9-THC in a dose-dependent manner”, the “activation of human TRPV2 (selective agonist)” value (human TRPV2) is given as “activate” and the “activation of rat TRPV2 (selective agonist)” value (rat TRPV2) is given as “activate”. For the same compound, the “activation of mouse TRPV2 (selective agonist)” value (mouse TRPV2) was “activate”.
